The record followed here is patent publication US9358191B2, “Deodorant composition” (priority 2002, dated 2016).

A short description of this assay: Deodorizing effect on malodor gas, closed circulation system. As to conditions: 1 mL on absorbent cotton, 2 hours of working. As to the method:
Into a 4 L odorless bag, 4 L of air was included by means of an air pump. Each malodor gas (ammonia, trimethylamine, hydrogen sulfide, or methyl mercaptan) was injected thereinto by an injection syringe to regulate a gas concentration. The bag was set at a test apparatus of closed circulation system fitted with an air pump and the air pump was worked at an air amount of about 1000 mL/minute. One milliliter of the above deodorant composition was supported on an absorbent cotton (0.2 g) and the cotton was set at the discharging side of the air pump. After 2 hours of working, the remaining amount of the malodor gas in the system was measured using a dedicated gas detecting tube (Gastech Corporation) and a deodorization rate was calculated according to the following expression.
As a comparative example, an absorbent cotton impregnated with 1 mL of a 20 mM aqueous solution of gallic acid was set at the discharging side of the air pump, instead of the absorbent cotton on which the above deodorant composition was supported. Then, the test was conducted similarly and the deodorization rate was calculated.
Deodorization rate (%)=100×{1−(A/B)}
In the above expression, A means the measured concentration of the malodor components and B means the concentration of the malodor components measured in the control. The control is the case that an absorbent cotton was impregnated with 1 mL of water instead of 1 mL of the above deodorant composition.

SMILES strings stand for the structures.

Take `O=C(O)c1cc(O)c(O)c(O)c1` [Gallic acid aqueous solution, gallic acid]: the Deodorization rate reads like this: (Ammonia, initial concentration 60 ppm) 85.0%; (Hydrogen sulfide, initial concentration 120 ppm) 5.0%; (Methyl mercaptan, initial concentration 100 ppm) 0%; (Trimethylamine, initial concentration 130 ppm) 70.0%.
